Test results published in the supplement of paper PMC10307832.

Columns and labels:
Test in all cases: relative viability (nuclei count vs DMSO), 5 days (fraction); higher = more cells survive
Alisertib + Dasatinib = compound: COc1cc(Nc2ncc3c(n2)-c2ccc(Cl)cc2C(c2c(F)cccc2OC)=NC3)ccc1C(=O)O [Alisertib] + Cc1nc(Nc2ncc(C(=O)Nc3c(C)cccc3Cl)s2)cc(N2CCN(CCO)CC2)n1 [Dasatinib] (partner 0.075 µM)
Summary of the method: (§1)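 Lung cancer cell lines in 1536-well plates were dosed by pin tool the day after seeding, either with one drug alone or with a fixed anchor-drug dose plus five library-drug doses (not always all listed) in √10 steps. After 5 days, cells were fixed and their nuclei stained in one step (final 0.05% Triton X-100, 1% formaldehyde, 1 ug/ml Hoechst), then counted on 4× images. Relative viability is the nuclei count in treated wells divided by that in vehicle wells. Values are medians of duplicate plates.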

Alisertib + Pemetrexed = compound: COc1cc(Nc2ncc3c(n2)-c2ccc(Cl)cc2C(c2c(F)cccc2OC)=NC3)ccc1C(=O)O [Alisertib] + Nc1nc2[nH]cc(CCc3ccc(C(=O)N[C@@H](CCC(=O)O)C(=O)O)cc3)c2c(=O)[nH]1 [Pemetrexed] (partner 0.2 µM)
Summary of the method: as §1

Alisertib + Palbociclib = compound: COc1cc(Nc2ncc3c(n2)-c2ccc(Cl)cc2C(c2c(F)cccc2OC)=NC3)ccc1C(=O)O [Alisertib] + CC(=O)c1c(C)c2cnc(Nc3ccc(N4CCNCC4)cn3)nc2n(C2CCCC2)c1=O [Palbociclib] (partner 0.5 µM)
Summary of the method: as §1

Alisertib + Vorinostat = compound: COc1cc(Nc2ncc3c(n2)-c2ccc(Cl)cc2C(c2c(F)cccc2OC)=NC3)ccc1C(=O)O [Alisertib] + O=C(CCCCCCC(=O)Nc1ccccc1)NO [Vorinostat] (partner 1 µM)
Summary of the method: as §1

Cell Line | relative viability (Alisertib + Dasatinib; first compound 0.005 µM) | relative viability (Alisertib + Dasatinib; first compound 0.01581 µM) | relative viability (Alisertib + Dasatinib; first compound 0.05 µM) | relative viability (Alisertib + Dasatinib; first compound 0.1581 µM) | relative viability (Alisertib + Dasatinib; first compound 0.5 µM) | relative viability (Alisertib + Pemetrexed; first compound 0.005 µM) | relative viability (Alisertib + Pemetrexed; first compound 0.01581 µM) | relative viability (Alisertib + Pemetrexed; first compound 0.05 µM) | relative viability (Alisertib + Pemetrexed; first compound 0.1581 µM) | relative viability (Alisertib + Pemetrexed; first compound 0.5 µM) | relative viability (Alisertib + Palbociclib; first compound 0.005 µM) | relative viability (Alisertib + Palbociclib; first compound 0.01581 µM) | relative viability (Alisertib + Palbociclib; first compound 0.05 µM) | relative viability (Alisertib + Palbociclib; first compound 0.1581 µM) | relative viability (Alisertib + Palbociclib; first compound 0.5 µM) | relative viability (Alisertib + Vorinostat; first compound 0.005 µM) | relative viability (Alisertib + Vorinostat; first compound 0.01581 µM) | relative viability (Alisertib + Vorinostat; first compound 0.05 µM) | relative viability (Alisertib + Vorinostat; first compound 0.1581 µM) | relative viability (Alisertib + Vorinostat; first compound 0.5 µM)
PC-3 [JPC-3] | 0.917 | 0.927 | 0.907 | 0.781 | 0.442 | 1.06 | 0.988 | 0.885 | 0.388 | 0.287 | 0.537 | 0.53 | 0.515 | 0.541 | 0.513 | 0.596 | 0.68 | 0.769 | 0.367 | 0.354
PC-14 | 0.213 | 0.248 | 0.177 | 0.0304 | 0.0192 | 0.103 | 0.138 | 0.146 | 0.0731 | 0.052 | 0.526 | 0.45 | 0.332 | 0.082 | 0.0483 | 0.627 | 0.63 | 0.367 | 0.0643 | 0.0761
RERF-LC-KJ | 0.73 | 0.672 | 0.366 | 0.187 | 0.17 | 0.441 | 0.466 | 0.415 | 0.273 | 0.216 | 1.07 | 0.834 | 0.601 | 0.275 | 0.246 | 0.626 | 0.507 | 0.391 | 0.252 | 0.213
SK-LU-1 | 0.192 | 0.157 | 0.116 | 0.125 | 0.104 | 0.972 | 0.722 | 0.405 | 0.333 | 0.267 | 0.395 | 0.364 | 0.22 | 0.242 | 0.236 | 0.749 | 0.427 | 0.287 | 0.251 | 0.246
SK-MES-1 | 0.354 | 0.466 | 0.253 | 0.125 | 0.074 | 0.904 | 0.787 | 0.661 | 0.442 | 0.191 | 0.316 | 0.346 | 0.29 | 0.226 | 0.161 | 0.954 | 0.976 | 0.365 | 0.206 | 0.216
SW 900 | 0.494 | 0.435 | 0.404 | 0.171 | 0.172 | 0.445 | 0.459 | 0.438 | 0.178 | 0.194 | 0.461 | 0.475 | 0.303 | 0.245 | 0.227 | 0.351 | 0.369 | 0.476 | 0.221 | 0.223
SW 1573 | 0.329 | 0.299 | 0.141 | 0.159 | 0.0978 | 0.781 | 0.767 | 0.269 | 0.21 | 0.114 | 0.304 | 0.27 | 0.152 | 0.134 | 0.117 | 0.803 | 0.288 | 0.239 | 0.233 | 0.109
UMC-11 | 0.32 | 0.184 | 0.157 | 0.144 | 0.127 | 0.602 | 0.26 | 0.196 | 0.18 | 0.175 | 0.331 | 0.289 | 0.248 | 0.223 | 0.275 | 0.262 | 0.169 | 0.113 | 0.118 | 0.161
